US9604933B2, “Pyrazolochalcones as potential anticancer agents” (COUNCIL OF SCIENTIFIC AND INDUSTRIAL RESEARCH, priority 2013, dated 2017)

Tests used:
[1] = test system: CCRF-CEM; assay: NCI SRB cytotoxicity, leukemia CCRF-CEM; format: cell-based; conditions: Homo sapiens, 48 h exposure
Description: (§1) The pyrazolochalcones (7e, 8e, 10e, 11e, 12e, 13e and 8f) have been tested against fifty nine human tumor cell lines derived from nine cancer types (leukemia, non-small cell lung cancer, colon cancer, CNS cancer, melanoma, ovarian cancer, renal cancer, prostate cancer and breast cancer) as per the NCI protocol. For each compound, dose response curves for individual cell lines have been measured at a minimum of five concentrations at 10 fold dilutions. A protocol of 48 h continuous drug exposure has been used, and a sulforhodamine B (SRB) protein assay has been used to estimate cell viability or growth. The concentration for 50% cell growth inhibition (GI50), 50% cell death (LC50, 50% growth) and total cell growth inhibition (TGI, 0% growth) values were tabulated (Table-1). DMSO was used as control to calculate the values of GI50, LC50 and TGI. The compounds 7e, 8e, 10e, 11e, 12e, 13e and 8f has been evaluated for their in vitro cytotoxicity in […] cell lines from nine human cancer types of leukemia (K-562, SR), non-small cell lung (Hop-62, NCI-H226, NCI-H522), colon (HCT-116, HCT-15, HCC-2998), CNS (SF-539), melanoma (SK-MEL-5, UACC-62, M14), ovarian (IGROV1), renal (A498), prostate (PC3) and breast (BT-549, MDA-MB-435, HS578T) origin. The results are expressed as percent of cell growth determined relative to that of untreated control cells (Table 2).

[2] = test system: HL-60(TB); assay: NCI SRB cytotoxicity, leukemia HL-60(TB); format: cell-based; conditions: Homo sapiens, 48 h exposure
Description: as §1

[3] = test system: MOLT-4; assay: NCI SRB cytotoxicity, leukemia MOLT-4; format: cell-based; conditions: Homo sapiens, 48 h exposure
Description: as §1

[4] = test system: A549/ATCC; assay: NCI SRB cytotoxicity, non-small cell lung A549/ATCC; format: cell-based; conditions: Homo sapiens, 48 h exposure
Description: as §1

[5] = test system: NCI-H226; assay: NCI SRB cytotoxicity, non-small cell lung NCI-H226; format: cell-based; conditions: Homo sapiens, 48 h exposure
Description: as §1

[6] = test system: NCIH322M; assay: NCI SRB cytotoxicity, non-small cell lung NCIH322M; format: cell-based; conditions: Homo sapiens, NCI-H322M, 48 h exposure
Description: as §1

[7] = test system: NCI-H522; assay: NCI SRB cytotoxicity, non-small cell lung NCI-H522; format: cell-based; conditions: Homo sapiens, 48 h exposure
Description: as §1

[8] = test system: COLO-205; assay: NCI SRB cytotoxicity, colon COLO-205; format: cell-based; conditions: Homo sapiens, 48 h exposure
Description: as §1

[9] = test system: HCT-116; assay: NCI SRB cytotoxicity, colon HCT-116; format: cell-based; conditions: Homo sapiens, 48 h exposure
Description: as §1

[10] = test system: HT29; assay: NCI SRB cytotoxicity, colon HT29; format: cell-based; conditions: Homo sapiens, HT-29, 48 h exposure
Description: as §1

[11] = test system: SW-620; assay: NCI SRB cytotoxicity, colon SW-620; format: cell-based; conditions: Homo sapiens, 48 h exposure
Description: as §1

[12] = test system: SF-268; assay: NCI SRB cytotoxicity, CNS SF-268; format: cell-based; conditions: Homo sapiens, 48 h exposure
Description: as §1

[13] = test system: SF-539; assay: NCI SRB cytotoxicity, CNS SF-539; format: cell-based; conditions: Homo sapiens, 48 h exposure
Description: as §1

[14] = test system: SNB-19; assay: NCI SRB cytotoxicity, CNS SNB-19; format: cell-based; conditions: Homo sapiens, 48 h exposure
Description: as §1

[15] = test system: LOX IMVI; assay: NCI SRB cytotoxicity, melanoma LOX IMVI; format: cell-based; conditions: Homo sapiens, 48 h exposure
Description: as §1

[16] = test system: MALME-3M; assay: NCI SRB cytotoxicity, melanoma MALME-3M; format: cell-based; conditions: Homo sapiens, 48 h exposure
Description: as §1

[17] = test system: M14; assay: NCI SRB cytotoxicity, melanoma M14; format: cell-based; conditions: Homo sapiens, 48 h exposure
Description: as §1

[18] = test system: SK-MEL-28; assay: NCI SRB cytotoxicity, melanoma SK-MEL-28; format: cell-based; conditions: Homo sapiens, 48 h exposure
Description: as §1

[19] = test system: SK-MEL-5; assay: NCI SRB cytotoxicity, melanoma SK-MEL-5; format: cell-based; conditions: Homo sapiens, 48 h exposure
Description: as §1

[20] = test system: UACC-62; assay: NCI SRB cytotoxicity, melanoma UACC-62; format: cell-based; conditions: Homo sapiens, 48 h exposure
Description: as §1

[21] = test system: OVCAR-3; assay: NCI SRB cytotoxicity, ovarian OVCAR-3; format: cell-based; conditions: Homo sapiens, 48 h exposure
Description: as §1

[22] = test system: A498; assay: NCI SRB cytotoxicity, renal A498; format: cell-based; conditions: Homo sapiens, 48 h exposure
Description: as §1

[23] = test system: ACHN; assay: NCI SRB cytotoxicity, renal ACHN; format: cell-based; conditions: Homo sapiens, 48 h exposure
Description: as §1

[24] = test system: CAKI-1; assay: NCI SRB cytotoxicity, renal CAKI-1; format: cell-based; conditions: Homo sapiens, 48 h exposure
Description: as §1

[25] = test system: RXF 393; assay: NCI SRB cytotoxicity, renal RXF 393; format: cell-based; conditions: Homo sapiens, 48 h exposure
Description: as §1

[26] = test system: SN12C; assay: NCI SRB cytotoxicity, renal SN12C; format: cell-based; conditions: Homo sapiens, 48 h exposure
Description: as §1

[27] = test system: TK-10; assay: NCI SRB cytotoxicity, renal TK-10; format: cell-based; conditions: Homo sapiens, 48 h exposure
Description: as §1

[28] = test system: UO-31; assay: NCI SRB cytotoxicity, renal UO-31; format: cell-based; conditions: Homo sapiens, 48 h exposure
Description: as §1

[29] = test system: PC-3; assay: NCI SRB cytotoxicity, prostate PC-3; format: cell-based; conditions: Homo sapiens, 48 h exposure
Description: as §1

[30] = test system: BT-549; assay: NCI SRB cytotoxicity, breast BT-549; format: cell-based; conditions: Homo sapiens, 48 h exposure
Description: as §1

[31] = test system: T-47D; assay: NCI SRB cytotoxicity, breast T-47D; format: cell-based; conditions: Homo sapiens, T47D, 48 h exposure
Description: as §1

[32] = test system: Leukemia; assay: NCI SRB cytotoxicity, leukemia panel average; format: cell-based, human; conditions: average of cell lines
Description: as §1
(§2) Each cancer type represents the average of six to eight different cancer cell lines.

[33] = test system: Colon; assay: NCI SRB cytotoxicity, colon panel average; format: cell-based, human; conditions: average of cell lines
Description: as §1, §2

[34] = test system: CNS; assay: NCI SRB cytotoxicity, CNS panel average; format: cell-based, human; conditions: average of cell lines
Description: as §1, §2

[35] = test system: Melanoma; assay: NCI SRB cytotoxicity, melanoma panel average; format: cell-based, human; conditions: average of cell lines
Description: as §1, §2

[36] = test system: Ovarian; assay: NCI SRB cytotoxicity, ovarian panel average; format: cell-based, human; conditions: average of cell lines
Description: as §1, §2

[37] = test system: Prostate; assay: NCI SRB cytotoxicity, prostate panel average; format: cell-based, human; conditions: average of cell lines
Description: as §1, §2

[38] = test system: Breast; assay: NCI SRB cytotoxicity, breast panel average; format: cell-based, human; conditions: average of cell lines
Description: as §1, §2

[39] = Homo sapiens, read-out: Log10 LC50 (concentration in mol/L causing 50% cell death) (converted)

COc1ccc(C(=O)/C=C/c2cc(-c3ccc4c(c3)OCO4)n[nH]2)cc1OC [8f, (E)-3-(3-(benzo[d][1,3]dioxol-5-yl)-1H-pyrazol-5-yl)-1-(3,4-dimethoxyphenyl)prop-2-en-1-one]
GI50 [1]: 2.52 µM | GI50 [2]: 2.82 µM | GI50 [3]: 3 µM | GI50 [4]: 2.7 µM | GI50 [5]: 3.4 µM | GI50 [6]: 2.48 µM | GI50 [7]: 1.82 µM | GI50 [8]: 3.84 µM | GI50 [9]: 2.43 µM | GI50 [10]: 2.98 µM | GI50 [11]: 2.05 µM | GI50 [12]: 2.53 µM | GI50 [13]: 1.91 µM | GI50 [14]: 3.2 µM | GI50 [15]: 1.97 µM | GI50 [16]: 7.32 µM | GI50 [17]: 6.36 µM | GI50 [18]: 5.76 µM | GI50 [19]: 6.74 µM | GI50 [20]: 4.1 µM | GI50 [21]: 2.02 µM | GI50 [22]: 1.55 µM | GI50 [23]: 3.49 µM | GI50 [24]: 1.9 µM | GI50 [25]: 2.42 µM | GI50 [26]: 3.25 µM | GI50 [27]: 2.8 µM | GI50 [28]: 2.3 µM | GI50 [29]: 2.5 µM | GI50 [30]: 1.9 µM | GI50 [31]: 3.2 µM | CC50 [32, 39]: 0.0001 mol/L | Log10 GI50 (concentration in mol/L causing 50% growth inhibition) [32]: −5.69 mol/L | Log10 TGI (concentration in mol/L causing total growth inhibition (0% growth)) [32]: −5.03 mol/L | LC50 [33, 39]: 0.000676 mol/L | Log10 GI50 (concentration in mol/L causing 50% growth inhibition) [33]: −5.52 mol/L | Log10 TGI (concentration in mol/L causing total growth inhibition) [33]: −4.85 mol/L | LC50 [34, 39]: 0.000155 mol/L | Log10 GI50 (concentration in mol/L causing 50% growth inhibition) [34]: −5.65 mol/L | Log10 TGI (concentration in mol/L causing total growth inhibition (0% growth)) [34]: −5.14 mol/L | LC50 [35, 39]: 0.00105 mol/L | Log10 GI50 (concentration in mol/L causing 50% growth inhibition) [35]: −5.79 mol/L | Log10 TGI (concentration in mol/L causing total growth inhibition) [35]: −4.80 mol/L | CC50 [36, 39]: 52.5 µM | Log10 GI50 (concentration in mol/L causing 50% growth inhibition) [36]: −5.58 mol/L | Log10 TGI (concentration in mol/L causing total growth inhibition (0% growth)) [36]: −4.87 mol/L | CC50 [37, 39]: 31.6 µM | Log10 GI50 (concentration in mol/L causing 50% growth inhibition) [37]: −5.66 mol/L | Log10 TGI (concentration in mol/L causing total growth inhibition (0% growth)) [37]: −5.05 mol/L | CC50 [38, 39]: 39.8 µM | Log10 GI50 (concentration in mol/L causing 50% growth inhibition) [38]: −4.76 mol/L | Log10 TGI (concentration in mol/L causing total growth inhibition (0% growth)) [38]: −5.05 mol/L
